Results from the supplement of paper PMC10307832.

Compound: CC1(C)CNc2cc(NC(=O)c3cccnc3NCc3ccncc3)ccc21 [Motesanib] + O=C(c1cc(Cc2n[nH]c(=O)c3ccccc23)ccc1F)N1CCN(C(=O)C2CC2)CC1 [Olaparib] (partner 8 µM)
Assay: relative viability (nuclei count vs DMSO), 5 days (fraction); higher = more cells survive
Conditions: first compound 0.01 µM
Method in brief: (§1)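 Nuclei were stained with Hoechst during a one-step fixation (final 0.05% Triton X-100, 1% formaldehyde, 1 ug/ml Hoechst) carried out 5 days after dosing, then counted on 4× images. The cells, lung cancer lines in 1536-well plates, had been dosed by pin tool the day after seeding with one drug alone or a fixed anchor-drug dose plus five library-drug doses (not always all listed) in √10 steps. Relative viability is the nuclei count in treated wells divided by that in vehicle wells, and each value is the median of duplicate plates.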

Cell Line	relative viability
HCC-827	0.616
LXF-289	1.04
NCI-H23	0.354
NCI-H647	0.48
NCI-H1651	0.176
EPLC-272H	0.779
NCI-H1792	0.544
NCI-H1355	0.726
NCI-H3122	0.581
NCI-H1437	0.637
NCI-H1755	0.795
HCC-15	0.632
NCI-H1793	0.798
PC-14	0.224
EKVX	0.74
LC-2-ad	0.689
NCI-H1944	0.444
NCI-H1975	0.756
RERF-LC-KJ	0.981

Same assay, conditions: first compound 0.03162 µM

Cell Line	relative viability
NCI-H2170	0.656
NCI-H2405	0.808
HOP-62	0.38
HCC-44	0.926
LU99A	0.268
BEN	1.04
HARA	0.937
HCC-78	0.789
NCI-H322M	0.762
LCLC-97TM1	0.414
A-427	0.7
NCI-H441	0.452
NCI-H1734	0.686
NCI-H460	0.396
NCI-H2347	0.507
NCI-H1395	0.496
201T	0.828
NCI-H1915	0.262
HCC-827	0.746

Cell Line	relative viability
LXF-289	0.992
NCI-H23	0.299
NCI-H647	0.638
NCI-H1651	0.192
EPLC-272H	1.33
NCI-H1792	0.444
NCI-H1355	0.771
NCI-H3122	0.644
NCI-H1437	0.631
NCI-H1755	0.877
HCC-15	0.74
NCI-H1793	0.827
PC-14	0.32
EKVX	0.809
LC-2-ad	0.709
NCI-H1944	0.4
NCI-H1975	0.667
RERF-LC-KJ	0.991

Same assay, conditions: first compound 0.1 µM

Cell Line	relative viability
NCI-H2170	0.599
NCI-H2405	0.859
HOP-62	0.389
HCC-44	1.07
LU99A	0.271
BEN	0.938
HARA	1.06
HCC-78	0.655
NCI-H322M	0.886
LCLC-97TM1	0.501
A-427	0.672
NCI-H441	0.436
NCI-H1734	0.72
NCI-H460	0.484
NCI-H2347	0.559
NCI-H1395	0.455
201T	0.852
NCI-H1915	0.258
HCC-827	0.652

Cell Line	relative viability
LXF-289	0.926
NCI-H23	0.308
NCI-H647	0.496
NCI-H1651	0.213
EPLC-272H	0.759
NCI-H1792	0.491
NCI-H1355	0.773
NCI-H3122	0.644
NCI-H1437	0.63
NCI-H1755	0.774
HCC-15	0.739
NCI-H1793	0.761
PC-14	0.322
EKVX	0.776
LC-2-ad	0.816
NCI-H1944	0.432
NCI-H1975	0.761
RERF-LC-KJ	0.896

Same assay, conditions: first compound 0.3162 µM

Cell Line	relative viability
NCI-H2170	0.61
NCI-H2405	0.837
HOP-62	0.564
HCC-44	1.09
LU99A	0.255
BEN	1.18
HARA	0.902
NCI-H322M	0.803
LCLC-97TM1	0.476
A-427	0.732
NCI-H441	0.627
NCI-H1734	0.636
NCI-H460	0.446
NCI-H2347	0.537
NCI-H1395	0.493
201T	0.88
NCI-H1915	0.277
HCC-827	0.713

Cell Line	relative viability
LXF-289	1.21
NCI-H23	0.281
NCI-H647	0.629
NCI-H1651	0.202
EPLC-272H	0.689
NCI-H1792	0.444
NCI-H1355	0.747
NCI-H3122	0.632
NCI-H1437	0.682
NCI-H1755	0.923
HCC-15	0.702
NCI-H1793	0.904
PC-14	0.258
EKVX	0.904
LC-2-ad	0.733
NCI-H1944	0.46
NCI-H1975	0.682
RERF-LC-KJ	1.08

Same assay, conditions: first compound 1 µM

Cell Line	relative viability
NCI-H2170	0.684
NCI-H2405	0.832
HOP-62	0.616
HCC-44	0.95
LU99A	0.263
BEN	1.43
HARA	1.05
HCC-78	0.834
NCI-H322M	0.812
LCLC-97TM1	0.287
A-427	0.777
NCI-H441	0.496
NCI-H1734	0.565
NCI-H460	0.402
NCI-H2347	0.596
NCI-H1395	0.468
201T	0.872
NCI-H1915	0.286
HCC-827	0.548

Cell Line	relative viability
LXF-289	1.12
NCI-H23	0.348
NCI-H647	0.611
NCI-H1651	0.201
EPLC-272H	0.745
NCI-H1792	0.486
NCI-H1355	0.707
NCI-H3122	0.683
NCI-H1437	0.657
NCI-H1755	0.9
HCC-15	0.724
NCI-H1793	0.844
PC-14	0.204
EKVX	0.944
LC-2-ad	0.785
NCI-H1944	0.428
NCI-H1975	0.781
RERF-LC-KJ	1.04

Compound: C[C@@]1(C(=O)Nc2ccc(F)nc2)CCCN1c1nc(Nc2cc(C3CC3)n[nH]2)c2cccn2n1 + CS(=O)(=O)N1CCN(Cc2cc3nc(-c4cccc5[nH]ncc45)nc(N4CCOCC4)c3s2)CC1 [Pictilisib] (partner 1 µM)
Assay: as above
Conditions: first compound 0.04 µM
Method in brief: as §1

Cell Line	relative viability
NCI-H2170	0.243
NCI-H2405	0.391
HOP-62	0.882
HCC-44	0.532
LU99A	0.233
BEN	0.614
HARA	0.366
HCC-78	0.204
NCI-H322M	0.479
LCLC-97TM1	0.139
A-427	0.79
NCI-H441	0.455
NCI-H1734	0.381
NCI-H460	0.299
NCI-H2347	0.595
NCI-H1395	0.664
201T	0.638
NCI-H1915	0.948
HCC-827	0.889

Cell Line	relative viability
LXF-289	0.739
NCI-H23	0.583
NCI-H647	0.443
NCI-H1651	0.484
EPLC-272H	0.251
NCI-H1792	0.257
NCI-H1355	0.428
NCI-H3122	0.479
NCI-H1437	0.271
NCI-H1755	0.481
HCC-15	0.715
NCI-H1793	0.338
PC-14	0.505
EKVX	0.354
LC-2-ad	0.248
NCI-H1944	0.29
NCI-H1975	0.226
RERF-LC-KJ	0.477

Same assay, conditions: first compound 0.1265 µM

Cell Line	relative viability
NCI-H2170	0.212
NCI-H2405	0.357
HOP-62	0.632
HCC-44	0.386
LU99A	0.217
BEN	0.573
HARA	0.208
HCC-78	0.148
NCI-H322M	0.376
LCLC-97TM1	0.151
A-427	0.679
NCI-H441	0.337
NCI-H1734	0.301
NCI-H460	0.202
NCI-H2347	0.6
NCI-H1395	0.436
201T	0.622
NCI-H1915	1.04
HCC-827	1.07

Cell Line	relative viability
LXF-289	0.657
NCI-H23	0.371
NCI-H647	0.24
NCI-H1651	0.447
EPLC-272H	0.18
NCI-H1792	0.266
NCI-H1355	0.462
NCI-H3122	0.374
NCI-H1437	0.295
NCI-H1755	0.241
HCC-15	0.573
NCI-H1793	0.284
PC-14	0.0522
EKVX	0.328
LC-2-ad	0.271
NCI-H1944	0.323
NCI-H1975	0.211
RERF-LC-KJ	0.44

Same assay, conditions: first compound 0.4 µM

Cell Line	relative viability
NCI-H2170	0.188
NCI-H2405	0.37
HOP-62	0.525
HCC-44	0.841
LU99A	0.225
BEN	0.606
HARA	0.215
HCC-78	0.172
NCI-H322M	0.371
LCLC-97TM1	0.159
A-427	0.739
NCI-H441	0.36
NCI-H1734	0.321
NCI-H460	0.184
NCI-H2347	0.516
NCI-H1395	0.761
201T	0.554
NCI-H1915	0.894
HCC-827	1.1

Cell Line	relative viability
LXF-289	0.567
NCI-H23	0.396
NCI-H647	0.334
NCI-H1651	0.39
EPLC-272H	0.168
NCI-H1792	0.201
NCI-H1355	0.332
NCI-H3122	0.479
NCI-H1437	0.248
NCI-H1755	0.307
HCC-15	0.747
NCI-H1793	0.323
PC-14	0.37
EKVX	0.33
LC-2-ad	0.272
NCI-H1944	0.283
NCI-H1975	0.188
RERF-LC-KJ	0.228

Same assay, conditions: first compound 1.265 µM

Cell Line	relative viability
NCI-H2170	0.243
NCI-H2405	0.296
HOP-62	0.818
HCC-44	0.328
LU99A	0.163
BEN	0.614
HARA	0.294
HCC-78	0.189
NCI-H322M	0.507
LCLC-97TM1	0.136
A-427	0.705
NCI-H441	0.375
NCI-H1734	0.296
NCI-H460	0.236
NCI-H2347	0.776
NCI-H1395	0.788
201T	0.614
NCI-H1915	0.863
HCC-827	1

Cell Line	relative viability
LXF-289	0.628
NCI-H23	0.342
NCI-H647	0.348
NCI-H1651	0.538
EPLC-272H	0.174
NCI-H1792	0.318
NCI-H1355	0.439
NCI-H3122	0.393
NCI-H1437	0.363
NCI-H1755	0.381
HCC-15	0.745
NCI-H1793	0.293
PC-14	0.485
EKVX	0.409
LC-2-ad	0.206
NCI-H1944	0.316
NCI-H1975	0.197
RERF-LC-KJ	0.494
